We go through 14 compounds from patent US12637445B2, “KIF18A inhibitors” (AMGEN INC., priority 2019, dated 2026).

Each structure is given as a SMILES string.

As usually defined, the IC50 is the midpoint of a concentration-inhibition curve.

The target in this assay is T1, Recombinant human KIF18A (1-467 His-tagged) protein (Homo sapiens, UniProt Q8NI77).
T1 construct: Recombinant human KIF18A (1-467 His-tagged) protein; His
T1 sequence (Q8NI77 1-467): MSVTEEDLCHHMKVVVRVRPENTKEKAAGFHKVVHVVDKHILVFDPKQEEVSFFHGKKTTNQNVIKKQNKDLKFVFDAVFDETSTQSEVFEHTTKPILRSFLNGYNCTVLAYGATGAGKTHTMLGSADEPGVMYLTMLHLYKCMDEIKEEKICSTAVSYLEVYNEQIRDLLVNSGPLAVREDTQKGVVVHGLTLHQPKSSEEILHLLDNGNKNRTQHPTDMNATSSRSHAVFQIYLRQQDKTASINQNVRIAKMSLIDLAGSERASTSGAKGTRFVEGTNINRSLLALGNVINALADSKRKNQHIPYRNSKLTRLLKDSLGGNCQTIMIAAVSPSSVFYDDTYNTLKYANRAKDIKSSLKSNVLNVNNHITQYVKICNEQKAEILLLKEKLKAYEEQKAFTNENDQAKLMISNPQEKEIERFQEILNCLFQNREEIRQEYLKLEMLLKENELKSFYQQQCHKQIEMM
T1 sequence (P02550 whole entry partner): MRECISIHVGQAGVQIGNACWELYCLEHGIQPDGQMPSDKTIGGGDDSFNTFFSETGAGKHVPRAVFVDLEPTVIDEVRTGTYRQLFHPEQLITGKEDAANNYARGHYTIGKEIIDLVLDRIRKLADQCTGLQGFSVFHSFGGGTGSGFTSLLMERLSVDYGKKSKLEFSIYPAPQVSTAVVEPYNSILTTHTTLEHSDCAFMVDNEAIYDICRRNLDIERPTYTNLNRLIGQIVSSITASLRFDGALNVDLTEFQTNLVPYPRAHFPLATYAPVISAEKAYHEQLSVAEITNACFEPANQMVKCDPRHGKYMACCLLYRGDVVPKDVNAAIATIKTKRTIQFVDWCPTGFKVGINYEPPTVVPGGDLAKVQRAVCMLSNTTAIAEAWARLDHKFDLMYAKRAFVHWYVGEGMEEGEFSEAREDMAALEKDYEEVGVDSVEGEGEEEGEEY
T1 sequence (P02554 whole entry partner): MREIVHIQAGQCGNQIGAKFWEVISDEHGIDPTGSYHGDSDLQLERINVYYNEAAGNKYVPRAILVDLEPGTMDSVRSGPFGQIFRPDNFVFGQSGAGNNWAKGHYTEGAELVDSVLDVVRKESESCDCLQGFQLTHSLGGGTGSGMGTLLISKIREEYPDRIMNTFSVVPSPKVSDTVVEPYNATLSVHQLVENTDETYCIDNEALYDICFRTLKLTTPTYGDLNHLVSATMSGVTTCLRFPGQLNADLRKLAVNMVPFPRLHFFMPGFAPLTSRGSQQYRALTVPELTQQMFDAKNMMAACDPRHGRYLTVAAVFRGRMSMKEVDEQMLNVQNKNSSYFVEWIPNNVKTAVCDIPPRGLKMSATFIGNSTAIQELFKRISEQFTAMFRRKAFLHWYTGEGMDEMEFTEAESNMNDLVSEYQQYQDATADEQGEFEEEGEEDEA
Description: KIF18A Enzyme Assay (microtubule-stimulated ATPase activity, ADP-Glo). It counts as biochemical. The following applies: 30 nM KIF18A, 30 μg/mL pig microtubules, 75 μM ATP, ADP-Glo luminescence. The source says:
KIF18A Enzyme Assay: Microtubule-stimulated ATPase activity assay is used to measure KIF18A enzyme activity after treatment with compound. Compounds were 2-fold serially diluted in DMSO (Sigma Inc) over 22-point concentration range. Recombinant human KIF18A (1-467 His-tagged) protein was expressed using a baculovirus system and purified by affinity chromatography by Amgen Inc. Concentrations of KIF18A protein, microtubules (MT), and ATP in the reaction were optimized for standardized homogenous enzyme assay using ADP-Glo™ Kinase/ATPase Assay Kit (Promega Inc). The assay measures ADP formed from the ATPase reaction. Prepare reaction buffer [(15 mM Tris, pH 7.5 (Teknova Inc), 10 mM MgCl2 (IT Baker Inc), 0.01% Pluronic F-68 (Life Technologies Inc), 1 μM Taxol (Cytoskeleton Inc), and 30 μg/mL pig microtubules (Cytoskeleton Inc)]. Add compound and KIF18A protein (30 nM) to prepared reaction buffer and incubated for 15 minutes at room temperature, next add ATP (at Kin, 75 μM) to the reaction mixture and incubated for an additional 15 minutes at room temperature. Mix 5 μl of ADP-Glor™ Reagent and 2.5 μl of the reaction mixture and incubate for 40 minutes at room temperature. Add 10 μl ADP-Glorh Detection Reagent and incubate for 40 minutes at room temperature. Read luminescence using EnVision microplate reader with ultra-luminescence module (Perkin Elmer Inc). Concentration-response curve-fitting and IC50 determination was performed using Genedata Screener Software (Standard 15.0.1, Genedata Inc) with a four-parameter logistic regression fit model.
As for `Cc1cc(Nc2ncnc3cc(NS(=O)(=O)CCO)cc(N4CCC5(CC4)CC5)c23)cc(N2CCC(F)(F)CC2)c1` [Example 100, N-(4-((3-(4,4-Difluoropiperidin-1-yl)-5-methylphenyl)amino)-5-(6-azaspiro[2.5]octan-6-yl)quinazolin-7-yl)-2-hydroxyethane-1-sulfonamide], the IC50 worked out at 49 nM.
With `Cc1cc(Nc2ncnc3cc(NS(=O)(=O)CCO)cc(N4CCC5(CC4)CC5)c23)nc(N2CCC(F)(F)CC2)c1` [Example 105-1, N-(4-((6-(4,4-Difluoropiperidin-1-yl)-4-methylpyridin-2-yl)amino)-5-(6-azaspiro[2.5]octan-6-yl)quinazolin-7-yl)-2-hydroxyethane-1-sulfonamide], the 50% inhibitory concentration (IC50) worked out at 78 nM.
As to `Cc1cc(Nc2ncnc3cc([S@](=N)(=O)C4CC4)cc(N4CCC5(CC4)CC5)c23)cc(N2CCC(F)(F)CC2)c1` (single isomer, unassigned) [Example 102-1], the IC50 was 73 nM.
Consider `Cc1cc(Nc2ncnc3cc(NS(=O)(=O)CCO)cc(N4CCC5(CC4)CC5)c23)cc(OCCC(F)(F)F)c1` [Example 103, 2-Hydroxy-N-(4-((3-methyl-5-(3,3,3-trifluoropropoxy)phenyl)amino)-5-(6-azaspiro[2.5]octan-6-yl)quinazolin-7-yl)ethane-1-sulfonamide], for which the IC50 was 175 nM.
In the case of `Cc1cc(Nc2ncnc3cc([S@@](=N)(=O)C4CC4)cc(N4CCC5(CC4)CC5)c23)cc(N2CCC(F)(F)CC2)c1` (single isomer, unassigned) [Example 102-2] it was 262 nM; in that of `Cc1cc(Nc2ncnc3cccc(N4CCC5(CC4)CC5)c23)cc(N2CCC(F)(F)CC2)c1` [Example 101-1, N-(3-(4,4-Difluoropiperidin-1-yl)-5-methylphenyl)-5-(6-azaspiro[2.5]octan-6-yl)quinazolin-4-amine], 3340 nM.
In the case of `Cc1cc(Nc2ncnc3cc(S(C)(=O)=O)cc(N4CCC5(CC4)CC5)c23)cc(N2CCC(F)(F)CC2)c1` [Example 101, N-(3-(4,4-Difluoropiperidin-1-yl)-5-methylphenyl)-7-(methylsulfonyl)-5-(6-azaspiro[2.5]octan-6-yl)quinazolin-4-amine] it was 940 nM; in that of `Cc1cc(Nc2nc(C)nc3cc(NS(=O)(=O)CCO)cc(N4CCC5(CC4)CC5)c23)cc(N2CCC(F)(F)CC2)c1` [Example 100-1, N-(4-((3-(4,4-Difluoropiperidin-1-yl)-5-methylphenyl)amino)-2-methyl-5-(6-azaspiro[2.5]octan-6-yl)quinazolin-7-yl)-2-hydroxyethane-1-sulfonamide], 955 nM.
In the case of `Cc1cc(C)cc(Nc2ncnc3cc(NS(=O)(=O)CCO)cc(N4CCC5(CC4)CC5)c23)c1` [Example 103-1, N-(4-((3,5-Dimethylphenyl)amino)-5-(6-azaspiro[2.5]octan-6-yl)quinazolin-7-yl)-2-hydroxyethane-1-sulfonamide] it was 403 nM; in that of `O=S(=O)(CCO)Nc1cc(N2CCC3(CC2)CC3)c2c(Nc3cccc(OCCC(F)(F)F)c3)ncnc2c1` [Example 103-2, N-(5-(6-Azaspiro[2.5]octan-6-yl)-4-((3-(3,3,3-trifluoropropoxy)phenyl)amino)quinazolin-7-yl)-2-hydroxyethane-1-sulfonamide], 61 nM.
Consider `Cc1cc(Oc2ncnc3cc(NS(=O)(=O)CCO)cc(N4CCC5(CC4)CC5)c23)cc(N2CCC(F)(F)CC2)c1` [Example 105-2, N-(4-(3-(4,4-Difluoropiperidin-1-yl)-5-methylphenoxy)-5-(6-azaspiro[2.5]octan-6-yl)quinazolin-7-yl)-2-hydroxyethane-1-sulfonamide], for which the IC50 is 2840 nM.
For the compound `Cc1cc(Nc2ncnc3cc(NS(=O)(=O)CCO)cc(N4CCC5(CC4)CC5)c23)nc(N2CCC(F)(F)CC2)n1` [Example 104, N-(4-((2-(4,4-Difluoropiperidin-1-yl)-6-methylpyrimidin-4-yl)amino)-5-(6-azaspiro[2.5]octan-6-yl)quinazolin-7-yl)-2-hydroxyethane-1-sulfonamide], the IC50 is 129 nM.
In the case of `Cc1cc(Nc2nncc3cc(NS(=O)(=O)CCO)cc(N4CCC5(CC4)CC5)c23)cc(N2CCC(F)(F)CC2)c1` [Example 106, N-(1-((3-(4,4-Difluoropiperidin-1-yl)-5-methylphenyl)amino)-8-(6-azaspiro[2.5]octan-6-yl)phthalazin-6-yl)-2-hydroxyethane-1-sulfonamide] it was 25 nM; in that of `Cc1cc(Nc2ncnc3cc(NS(=O)(=O)CCO)cc(N4CCC5(CC4)CC5)c23)cc(N2CCC(F)(F)CC2)n1` [Example 105, N-(4-((2-(4,4-Difluoropiperidin-1-yl)-6-methylpyridin-4-yl)amino)-5-(6-azaspiro[2.5]octan-6-yl)quinazolin-7-yl)-2-hydroxyethane-1-sulfonamide], 82 nM.
